These results are taken from ChEMBL document CHEMBL3046495, “CoMFA, ADVANCE CoMFA AND CoMSIA STUDIES ON THE OXADIAZOLE SUBSTITUTED -ISOPROPOXY PHENYLPROPIONIC ACIDS FOR PPAR AGONISTIC ACTIVITY” (Med Chem Res, 2004).

This test has as its target T1, Peroxisome proliferator-activated receptor alpha (Homo sapiens, UniProt Q07869).
T1 sequence (Q07869 whole entry): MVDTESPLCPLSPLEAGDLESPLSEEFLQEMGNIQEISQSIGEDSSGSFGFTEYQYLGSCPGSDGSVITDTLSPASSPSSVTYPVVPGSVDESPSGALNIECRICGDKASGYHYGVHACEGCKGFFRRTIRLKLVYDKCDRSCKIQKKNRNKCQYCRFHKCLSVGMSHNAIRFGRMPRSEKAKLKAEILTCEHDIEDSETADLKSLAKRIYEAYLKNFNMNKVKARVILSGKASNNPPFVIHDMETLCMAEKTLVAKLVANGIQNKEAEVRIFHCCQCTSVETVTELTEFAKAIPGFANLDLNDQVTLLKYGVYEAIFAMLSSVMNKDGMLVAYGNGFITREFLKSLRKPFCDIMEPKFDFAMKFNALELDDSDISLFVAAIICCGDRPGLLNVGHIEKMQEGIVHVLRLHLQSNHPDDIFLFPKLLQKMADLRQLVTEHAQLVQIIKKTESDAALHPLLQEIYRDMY
Briefly: Agonist activity at PPARalpha (unknown origin).

The EC50 is the concentration at which the effect is half-maximal. `CC(C)OC(Cc1ccc(OCCc2noc(C3CCCCC3)n2)cc1)C(=O)O` (configuration not stated) gave an EC50 of 240 nM. This lies in the sub-micromolar range.

`CC(C)Cc1ccc(-c2nc(COc3ccc(CC(OC(C)C)C(=O)O)cc3)no2)cc1` (configuration not stated) gave an EC50 of 40 nM. Compared with the last compound, the EC50 is about 6-fold lower.
